Data: patent US20170209444A1, “METHODS OF TREATING CANCER AND PREVENTING CANCER DRUG RESISTANCE” (Genentech, Inc., priority 2014, published 2017)
“Also recorded” adds a separate entry of the source.

What was measured:
[1] = test system: H3K9 methylation; assay: H3K9 methylation in EVSA-T cells (FIG. 8A); type: cell-based; conditions: human breast cancer cell line EVSA-T
Method: (§1) Generally, for G9a inhibitor experiments cells were treated with active compound at 0.1, 0.2, 0.5 and/or 1 uM of the G9a inhibitor, UNC0638, for 3-5 days prior to chemotherapy treatment and were maintained on drug for the duration of the study.
(§2) Cell lysates were prepared in Laemmli sample buffer and analyzed by immunoblotting as described previously. Cell lystates were analyzed using commercial antibodies against modifications on H3 (Abcam, Active Motif, and Cell Signaling Technologies).

[2] = test system: M14 DTPs; assay: M14 DTP formation, GDC0973; type: cell-based, human; conditions: DTPs upon treatment with GDC0973; FIG. 10B
Method: (§3) 2×10^5 cells were plated in each well of a 6-well cluster dish. 24 hours after plating, media was removed and replaced with media containing drugs. Fresh media was replaced every 2 days until untreated cells reached confluence. Media was then removed, cells were washed with Phosphate Buffered Saline (PBS), and then fixed for 15 min with 4% formaldehyde in PBS. Cells were then washed with PBS and stained with the fluorescent nucleic acid stain, Syto60 ([…] in PBS; Molecular Probes) for 15 min. Dye was removed, cell monolayers were washed with PBS, and fluorescence quantitation was carried out at 700 nm with an Odyssey Infrared Imager (Li-Cor Biosciences). In some setting, RFP nuc red cells were used rather than Syto60.
(§4) Drug-sensitive cells were treated with relevant drug as described herein at concentrations exceeding 100 times the established IC50 values, for three rounds, with each treatment lasting 72 hours. […]
(§5) Specifically for Tarceva, GDC-0980, GDC-0973, AZ628, and Lapatinib DTPs, cells were plated and grown to 60-70% confluency then treated with Tarceva (0.1, 0.2, 0.5, and/or 1 uM), GDC-0980 (2 uM), GDC-0973 (1 uM), AZ628 (2 uM) and Lapatinib (1 uM). DTPs were collected and analyzed 1 week after the final dose of chemotherapy. […]

[3] = test system: EVSA-T parental cells; assay: Viability of EVSA-T parental cells; type: cell-based, human; conditions: shown concentrations; FIG. 8B
Method: as §3, §1

[4] = test system: H3K9 methylation; assay: H3K9 methylation in Colo205 cells (FIG. 11A); type: cell-based; conditions: human colon cancer cell line Colo205
Method: as §1, §2

[5] = test system: G9aK185me3; assay: G9a auto-methylation (FIG. 3B); type: cell-based
Method: Cell lysates were prepared in Laemmli sample buffer and analyzed by immunoblotting as described previously.

[6] = test system: H3K9me2 levels; conditions: Vedadi et al. 2011; Sweis et al. 2014; cited from earlier work
[7] = test system: H3K9 methylation; assay: H3K9 methylation Western blot in PC9 cells (FIG. 6A); type: cell-based, human
Method: as §1, §2

[8] = test system: SKBR3 parental cells; assay: Viability of SKBR3 parental cells; type: cell-based, human; conditions: shown concentrations; FIG. 9B
Method: as §3, §1

[9] = test system: M14 parental cells; assay: Viability of M14 parental cells; type: cell-based, human; conditions: shown concentrations; FIG. 10B
Method: as §3, §1

[10] = test system: EVSA-T DTPs; assay: EVSA-T DTP formation, GDC-0980; type: cell-based, human; conditions: DTPs upon treatment with GDC-0980; FIG. 8B
Method: as §3, §4, §5

[11] = test system: H3K9 methylation; assay: H3K9 methylation in SKBR3 cells (FIG. 9A); type: cell-based; conditions: human breast adenocarcinoma cell line SKBR3
Method: as §1, §2

[12] = test system: methylation of H3K9; assay: H3K9 methylation by Western blotting and mass spectrometry (FIG. 3A); type: cell-based
Method: as §1, §2
Samples with 10 million cells were lysed and histones were isolated from cell lysates using the Active Motif Histone Purification Kit (world wide web activemotif.com/catalog/171.html). Protein quantitation post-isolation was performed using the Qubit fluorescence platform (Invitrogen). The target yield was at least 20 μg or greater of purified histone per 5 million cells. The samples were then derivatized and binary comparisons using d0/d10 propionic anhydride and trypsin digestion was conducted. […]
Peptide digests were analyzed by nano LC/MS/MS in data-dependent mode on a LTQ Orbitrap Velos tandem mass spectrometer. […] Trypsin-digested propionylated samples were quantitated within each LC/MS run by comparing d0/d5 pairs (according to the work of Garcia et al., JPR, 8, 5367-5374 (2009)). Alternate enzyme samples were quantitated label-free between LC/MS runs.

[13] = test system: H3K9 methylation; assay: H3K9 methylation in M14 cells (FIG. 10A); type: cell-based; conditions: human melanoma cell line M14
Method: as §1, §2

[14] = test system: parental PC9 cells; assay: Viability of parental PC9 cells; type: cell-based, human; conditions: shown concentrations; FIG. 6B
Method: as §3, §1

[15] = test system: PC9 DTPs; assay: PC9 drug tolerant persister (DTP) formation/viability, Tarceva; type: cell-based, human
Method: as §3, §4, §5

[16] = test system: Colo205 DTPs; assay: Colo205 DTP formation, AZ628; type: cell-based, human; conditions: DTPs upon treatment with AZ628; FIG. 11B
Method: as §3, §4, §5

[17] = test system: SKBR3 DTPs; assay: SKBR3 DTP formation, Lapatinib; type: cell-based, human; conditions: DTPs upon treatment with Lapatinib; FIG. 9B
Method: as §3, §4, §5

[18] = test system: Colo205 parental cells; assay: Viability of Colo205 parental cells; type: cell-based, human; conditions: shown concentrations; FIG. 11B
Method: as §3, §1

COc1cc2c(NC3CCN(C(C)C)CC3)nc(C3CCCCC3)nc2cc1OCCCN1CCCC1 [UNC0638]
H3K9 methylation (me1, me2, me3) [1]: reduces H3K9 methylation (e.g., me1, me2, and me3) in a dose dependent manner | number of M14 DTPs formed after pre-treatment [2]: dose dependent reduction in the number of M14 DTPs formed | viability of the EVSA-T parental cells [3]: do not affect the viability of the EVSA-T parental cells | H3K9 methylation (me1, me2, me3) [4]: reduces H3K9 methylation (e.g., me1, me2, and me3) in a dose dependent manner | inhibition of auto-methylation G9aK185me3 [5]: inhibits auto-methylation G9aK185me3 | H3K9me2 levels [6]: reduces H3K9me2 levels in a concentration dependent manner | H3K9 methylation (me1, me2, me3) [7]: reduced methylation of H3K9; also recorded: reduces H3K9 methylation (e.g., me1, me2, and me3) in a dose dependent manner | viability of the SKBR3 parental cells [8]: do not affect the viability of the SKBR3 parental cells | viability of the M14 parental cells [9]: do not affect the viability of the M14 parental cells | number of EVSA-T DTPs formed after pre-treatment [10]: dose dependent reduction in the number of EVSA-T DTPs formed | H3K9 methylation (me1, me2, me3) [11]: reduces H3K9 methylation (e.g., me1, me2, and me3) in a dose dependent manner | inhibition of methylation of H3K9 [12]: capable of inhibiting methylation of H3K9 | H3K9 methylation (me1, me2, me3) [13]: reduces H3K9 methylation (e.g., me1, me2, and me3) in a dose dependent manner | viability of the parental PC9 cells [14]: do not affect the viability of the parental PC9 cells | viability/number of PC9 DTPs generated via treatment with Tarceva ([15]; Tarceva, FIGS. 5 and 7): reduces the number of the non-small cell lung cancer cell line, PC9, DTPs; also recorded: reduced the viability of PC9 DTPs | number of DTPs formed after pre-treatment ([15]; varying doses of UNC0638 pre-treatment, FIG. 6B): reducing the number of PC9 DTPs; also recorded: dose dependent reduction in the number of DTPs formed | number of Colo205 DTPs formed after pre-treatment [16]: dose dependent reduction in the number of Colo205 DTPs formed | number of SKBR3 DTPs formed after pre-treatment [17]: dose dependent reduction in the number of SKBR3 DTPs formed | viability of the Colo205 parental cells [18]: do not affect the viability of the Colo205 parental cells
